The values below come from patent US20220202792A1, “METHODS AND COMPOSITIONS FOR TREATING CHRONIC INFLAMMATORY INJURY, METAPLASIA, DYSPLASIA AND CANCERS OF EPITHELIAL TISSUES” (University of Houston System, priority 2019, published 2022).

“Also recorded” adds a separate entry of the source.

The subject of data set [1] is Barrett's stem cells (BE stem cells, Krt7+). Put plainly: High throughput chemical screening and dose response on GFP-labeled stem cells. The class given is cell-based, human. The following applies: for lethality towards Barrett's stem cells: screened in the background of 1 μM Ponatinib.
Data set [2] relates to esophageal squamous stem cells (ESO stem cells, Krt5+). Described as above. The class given is cell-based, human. The settings on record: for effect on Esophageal stem cells: in the presence of 1 μM Ponatinib.
For data set [3], the target named is ERBB2 phosphorylation (T798I) (Homo sapiens, UniProt P04626, T798I). The settings on record: cited from earlier work.
The test system of data set [4] is taxol-resistant ovarian stem cells. Description: Killing of taxol-resistant ovarian stem cells in vitro. The format is cell-based. The settings on record: combination with ponatinib.
Data set [5] shares this test system. Put plainly: Taxol-resistant ovarian stem cell xenograft animal models. The format is in vivo. The following applies: combination with ponatinib.
The next data set has as its system 3T3-J2 feeder cells. Put plainly: Lethality of feeder cells during treatment. The format is cell-based. The settings on record: combination with Ponatinib. On the procedure: It was next hypothesized that one chemical in our libraries could function with Ponatinib in a synergistic manner to specifically eradicate Barrett's stem cells while protecting and promoting esophageal stem cells. The same libraries were screened in the background of 1 μM Ponatinib. […] Among them, Adefovir Dipivoxil is a FDA approved drug, CEP-18770 and Qizartinib are in clinical trials. […] Their differential effects on Barrett's stem cells and Esophageal stem cells were validated in a dosage dependent manner (FIG. 2C; FIG. 3F).
The GFP-tagged cell lines will be seeded on multiple 384 well plates (Griener Bio-One, USA) (varying according to number of compounds in a library) with a feeder layer of irradiated 3T3-J2 fibroblast cells. The stem cell will be allowed to grow until they divide to become 4-5 cells within a colony. Afterwards they will be transported for treatment with selected chemical library (1 μM) to High Throughput Research and Screening Center at Institute of Biosciences and Technology (Houston, Tex.), Texas A&M University. Positive and negative control lanes will be allocated within each plate. […] The cells will be allowed to grow for 6 days at 37° C., 7.5% CO2 incubator after treatment. After the cells in the control lanes are at good confluency, the cells will be prepared for imaging. […]

The next data set concerns the target human GSK3α (Homo sapiens, UniProt P49840). The following applies: cited from earlier work.
Data set [6] has as its system Barrett's stem cells and Esophageal stem cells. Put plainly: Co-culture of Barrett's stem cell lines and Esophageal stem cells. The settings on record: in the presence of Ponatinib. The format is cell-based, human.
For data set [7], the system named is Barrett's stem cells (GFP) and esophageal squamous stem cells (RFP). Put plainly: 3D air-liquid interface (ALI) co-culture of Barrett's and esophageal stem cells. The format is cell-based, human. The settings on record: in the presence of Ponatinib. How it is done: A 3D culture model was generated to mimic Barrett's Esophagus in vitro. The esophageal squamous stem cells and Barrett's stem cells were co-cultured in the transwell insert. Following the creation of air-liquid interface, it was observed that the BE islands located among well-differentiated squamous epithelium that well recapitulated the histology of human BE in the patient. Given the similarity of this artificial model and human pathology, the hits were tested in this system to further validate them. […] The esophageal squamous stem cells were labeled with red fluorescent protein (RFP) while Barrett's stem cells were labeled with green fluorescent protein (GFP). Without the treatment, it was observed that a mixture of GFP and RFP labeled cells in culture.

The test system of data set [8] is Barrett's stem cells and esophageal squamous stem cells xenograft. Description: Mouse xenograft of co-injected esophageal squamous and GFP labeled Barrett's stem cells. The class given is in vivo, mice. The source says: The effect of these chemicals on BE in a xenograft model was further examined. The esophageal squamous stem cells and GFP labeled Barrett's stem cells were mixed and co-injected into the immunodeficient mice. […] Two weeks following the treatment, the xenografts were collected and examined through histology analysis and clonogenic analysis.

The test system of data set [9] is Barrett's, dysplasia or EAC stem cells. Description: Co-culture of esophageal stem cells with Barrett's, dysplasia or EAC stem cells. The format is cell-based, human. The settings on record: together with 1 μM Ponatinib. On the procedure:
FIG. 6. Patient-matched BE, dysplasia and cancer stem cells (Krt7+, Green) were mixed with Krt5+ (red) ESO cells and co-cultured for five days and then treated with seven selected drugs together with 1 μM Ponatinib.
BE has been known to be the precursor of the dysplastic and cancerous lesions of EAC. […] Moreover, PCA analysis of Barrett's stem cells derived from 12 patients together with dysplasia, cancer and Esophageal squamous stem cells confirmed that the stem cells of dysplasia and cancer shared very similar gene expression with Barrett's stem cells (FIGS. 4A & B). […] The effects of the eight drug hits in combination with Ponatinib were tested in the cell culture of co-seeding esophageal stem cells and Barrett's, dysplasia or EAC stem cells. […] Given these three entities always co-exist in patients with EAC, our strategies of eradicating all of them could help to eliminate the chance of recurrence of EAC patients drastically.

The subject of data set [10] is BE, dysplasia and cancer stem cells. Description: 3D (ALI) culture of patient-matched BE, dysplasia and cancer stem cells. The format is cell-based, human. The following applies: combined with Ponatinib. The source says:
FIG. 5B. Left, Scanned images of top view of BE, dysplasia and cancer stem cells (green) generated ALI structures in the presence of absence of drug combinations.

The subject of data set [11] is dysplasia and cancer stem cells. Put plainly: Mice xenografted with dysplasia and cancer stem cells. The class given is in vivo. The settings on record: with Ponatinib. The source says: FIG. 5C. Schematic of in vivo validation of drug combinations in mice xenografted with dysplasia and cancer stem cells. Following the treatment, the xenografts were processed for histological analysis or clonogenic assays to detect the existence of stem cells.

In data set [12] the test system is chymotrypsin-like activity of proteasome. The settings on record: cited from earlier work.
For data set [13], the system named is tryptic and peptidylglutamyl activities of the proteosome. The settings on record: cited from earlier work.
In data set [14] the test system is chymotrypsin-like activity of the proteasome. The settings on record: cellular; cited from earlier work.
In the next data set the target is T1, STAT1 (Homo sapiens, UniProt P42224).
T1 sequence (P42224 1-750): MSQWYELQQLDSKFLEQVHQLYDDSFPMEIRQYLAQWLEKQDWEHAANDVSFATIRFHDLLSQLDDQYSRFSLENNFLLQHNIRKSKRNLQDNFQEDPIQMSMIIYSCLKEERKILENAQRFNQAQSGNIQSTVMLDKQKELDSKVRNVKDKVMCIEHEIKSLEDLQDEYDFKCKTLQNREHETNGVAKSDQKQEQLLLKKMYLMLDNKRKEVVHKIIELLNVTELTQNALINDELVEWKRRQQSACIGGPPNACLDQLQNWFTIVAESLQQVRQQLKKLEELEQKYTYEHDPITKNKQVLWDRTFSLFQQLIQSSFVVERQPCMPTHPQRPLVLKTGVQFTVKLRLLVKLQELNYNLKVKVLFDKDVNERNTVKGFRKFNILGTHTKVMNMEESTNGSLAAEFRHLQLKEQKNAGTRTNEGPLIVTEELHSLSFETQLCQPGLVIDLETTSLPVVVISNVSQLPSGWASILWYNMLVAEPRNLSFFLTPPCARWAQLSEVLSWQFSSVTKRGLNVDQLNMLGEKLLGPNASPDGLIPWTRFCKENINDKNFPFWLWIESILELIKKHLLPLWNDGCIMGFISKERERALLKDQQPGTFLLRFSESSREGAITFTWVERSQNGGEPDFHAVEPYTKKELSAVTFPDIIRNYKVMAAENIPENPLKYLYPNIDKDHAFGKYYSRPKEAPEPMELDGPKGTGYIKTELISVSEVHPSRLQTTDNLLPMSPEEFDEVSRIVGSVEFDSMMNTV
The settings on record: cited from earlier work.

Sequence of human GSK3α (P49840 whole entry): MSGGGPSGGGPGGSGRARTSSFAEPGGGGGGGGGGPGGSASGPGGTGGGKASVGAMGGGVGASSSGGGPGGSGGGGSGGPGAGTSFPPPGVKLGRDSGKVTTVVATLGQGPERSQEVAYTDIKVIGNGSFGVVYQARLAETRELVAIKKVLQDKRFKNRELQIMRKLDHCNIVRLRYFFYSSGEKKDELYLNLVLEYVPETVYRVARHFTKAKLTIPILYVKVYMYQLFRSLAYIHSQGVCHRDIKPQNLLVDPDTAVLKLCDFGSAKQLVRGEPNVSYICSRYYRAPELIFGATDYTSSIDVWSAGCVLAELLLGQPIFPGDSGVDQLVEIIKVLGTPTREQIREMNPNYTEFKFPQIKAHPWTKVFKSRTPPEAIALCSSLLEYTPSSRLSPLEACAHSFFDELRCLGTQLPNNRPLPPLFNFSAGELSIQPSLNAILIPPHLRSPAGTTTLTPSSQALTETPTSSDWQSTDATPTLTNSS
Sequence of ERBB2 phosphorylation (T798I) (P04626 23-1255 T798I): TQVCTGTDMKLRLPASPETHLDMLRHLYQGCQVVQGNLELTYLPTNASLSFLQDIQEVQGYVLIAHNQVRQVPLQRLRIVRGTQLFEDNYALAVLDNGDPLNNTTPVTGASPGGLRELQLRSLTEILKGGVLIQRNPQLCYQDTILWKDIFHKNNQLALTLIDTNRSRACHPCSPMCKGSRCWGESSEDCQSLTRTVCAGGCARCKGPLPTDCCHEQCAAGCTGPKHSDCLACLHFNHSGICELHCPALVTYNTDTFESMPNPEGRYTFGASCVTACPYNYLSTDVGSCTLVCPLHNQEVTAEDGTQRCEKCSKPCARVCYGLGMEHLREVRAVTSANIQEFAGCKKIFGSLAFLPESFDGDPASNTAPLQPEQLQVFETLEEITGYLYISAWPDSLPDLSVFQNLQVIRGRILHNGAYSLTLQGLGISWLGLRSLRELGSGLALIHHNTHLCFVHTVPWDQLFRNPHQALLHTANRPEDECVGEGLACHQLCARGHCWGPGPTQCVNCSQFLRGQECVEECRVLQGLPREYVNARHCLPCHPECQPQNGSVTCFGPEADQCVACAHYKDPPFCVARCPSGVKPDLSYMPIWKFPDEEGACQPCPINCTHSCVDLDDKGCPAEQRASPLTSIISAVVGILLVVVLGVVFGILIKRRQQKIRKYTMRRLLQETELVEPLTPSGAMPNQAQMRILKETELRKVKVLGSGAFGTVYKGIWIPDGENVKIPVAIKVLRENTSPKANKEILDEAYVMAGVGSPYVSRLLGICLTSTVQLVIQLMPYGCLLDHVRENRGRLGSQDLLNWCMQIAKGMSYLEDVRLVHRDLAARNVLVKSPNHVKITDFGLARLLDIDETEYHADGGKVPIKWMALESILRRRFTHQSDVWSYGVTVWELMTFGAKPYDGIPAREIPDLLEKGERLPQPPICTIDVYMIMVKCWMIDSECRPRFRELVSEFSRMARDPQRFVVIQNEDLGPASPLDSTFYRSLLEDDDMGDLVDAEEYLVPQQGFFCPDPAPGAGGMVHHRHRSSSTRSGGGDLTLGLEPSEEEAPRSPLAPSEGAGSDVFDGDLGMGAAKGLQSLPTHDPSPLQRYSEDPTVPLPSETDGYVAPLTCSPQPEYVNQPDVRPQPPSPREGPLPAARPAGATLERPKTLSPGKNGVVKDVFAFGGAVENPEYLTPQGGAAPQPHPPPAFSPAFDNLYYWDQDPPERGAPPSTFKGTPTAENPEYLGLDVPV

Turning to `C=CC(=O)Nc1cccc(Sc2nc(Nc3ccc(N4CCN(C)CC4)cc3)ncc2Cl)c1` [WZ8040], the “lethality towards Barrett's stem cells” value in data set [1] is “displayed the lethality”. In addition, in data set [2], the “effect on Esophageal stem cells” value is “without affecting”. The “inhibition of ERBB2 phosphorylation (T798I)” value in data set [3] is “does not inhibit”.
For the compound `CC(C)(C)c1cc(NC(=O)Nc2ccc(-c3cn4c(n3)sc3cc(OCCN5CCOCC5)ccc34)cc2)no1` [Quizartinib], in data set [1], the “lethality towards Barrett's stem cells” value is “displayed the lethality”. Also, the “effect on Esophageal stem cells” value in data set [2] is “without affecting”.
On to `CC(=O)O[C@H]1C(=O)[C@@]2(C)[C@H]([C@H](OC(=O)c3ccccc3)[C@]3(O)C[C@H](OC(=O)[C@H](O)[C@@H](NC(=O)c4ccccc4)c4ccccc4)C(C)=C1C3(C)C)[C@]1(OC(C)=O)CO[C@@H]1C[C@@H]2O` [taxol], for which the “killing taxol-resistant ovarian stem cells” value in data set [4] is on record as “synergy”. Besides, in [5], the tumor volume entry is on record as “reducing tumor volume”.
`Cc1ccc(C(=O)Nc2ccc(CN3CCN(C)CC3)c(C(F)(F)F)c2)cc1C#Cc1cnc2cccnn12` [Ponatinib]: the “survival of Barrett's stem cells” value in data set [1] (single agent screening) was “slightly decreasing the survival”. Besides, the “proliferation of esophageal stem cells” value in data set [2] (single agent screening) is given as “promoted the proliferation; also recorded: significantly increase the proliferation”.
With `CO[C@H]1CC[C@@H](O[C@H]2C[C@H]([C@]3(C)CC[C@]4(C[C@H](O)[C@@H](C)[C@@H]([C@@H](C)/C=C(\C)C(=O)[C@H](C)C[C@H](C)C(=O)O)O4)O3)O[C@]3(O[C@@H]([C@H]4O[C@@](O)(CO)[C@H](C)C[C@@H]4C)C[C@@H]3C)[C@@H]2C)O[C@H]1C` [Nanchangmycin], the “lethality towards Barrett's stem cells” value in data set [1] was “displayed the lethality”. Besides, the “effect on Esophageal stem cells” value in data set [2] is “without affecting”. In addition, the “lethality of 3T3-J2 feeder cells during the treatment” value in the data set on 3T3-J2 feeder cells was “high lethality”.
In the case of `CC(C)(C)C(=O)OCOP(=O)(COCCn1cnc2c(N)ncnc21)OCOC(=O)C(C)(C)C` [Adefovir Dipivoxil], the “lethality towards Barrett's stem cells” value in [1] was “displayed the lethality”. Further, in data set [2], the “effect on Esophageal stem cells” value is “without affecting”.
As usually defined, the Ki is a dissociation constant, usually derived from enzyme kinetics or from competition with a known ligand. For `N#Cc1ccc2[nH]c(O)c(-c3ccc(CN4CCOCC4)cn3)c2c1` [AZD1080], the “lethality towards Barrett's stem cells” value in data set [1] is recorded as “displayed the lethality”. In data set [1] (together with 1 μM Ponatinib), the “differential effects on BE and ESO stem cells, validation over a range of dosages” value is listed as “appeared to be the false positive hit in the screening”. Moreover, the “effect on Esophageal stem cells” value in data set [2] was “without affecting”. On human GSK3α, the inhibition constant Ki is 6.9 nM.
As usually defined, the IC50 is the concentration that gives 50% inhibition. For `CC(C)C[C@H](NC(=O)[C@@H](NC(=O)c1cccc(-c2ccccc2)n1)[C@@H](C)O)B(O)O` [CEP-18770, [(1R)-1-[[(2S,3R)-3-hydroxy-2-[(6-phenylpyridine-2-carbonyl)amino]butanoyl]amino]-3-methylbutyl]boronic acid], the “differential of dose-response curves, BE stem cells versus normal esophageal stem cells” value in [1] (in the background of a fixed concentration of Ponatinib) was ~1,000 fold. In data set [1], the “lethality towards Barrett's stem cells” value is listed as “displayed the lethality”. Also, the “effect on Esophageal stem cells” value in [2] is “without affecting”. In data set [6], the “effect on Esophageal squamous stem cells in co-culture” value was “promoting”. Moreover, the “lethality to Barrett's stem cells in co-culture” value in [6] (nine Barrett's stem cell lines) was “uniform lethality to all Barrett's stem cells”. The “cross sections of the ALI structures” value in [7] was “intact esophageal squamous epithelium without any existence of Barrett's epithelium”. Further, the “GFP labeled Barrett's stem cells in 3D ALI co-culture” value in data set [7] (eight Barrett's stem cell lines) was “disappearance”. Also, in data set [8] (NSG mice, with Ponatinib), the “BE stem cells in treated structures (histological analysis)” value is reported as “not detected” and the “Krt5+ ESO structures in treated samples” value was “visibly more robust”. Besides, in data set [8] (combination with Ponatinib, clonogenic analysis), the “clonogenic Barrett's stem cells from xenografts” value is “lack of clonogenic Barrett's stem cells”. For the same compound, the “Barrett's structures in xenografts (histology)” value in data set [8] (combination with Ponatinib, intraperitoneally, two weeks following the treatment) is reported as “total loss”. Moreover, the “growth of BE, dysplasia and cancer stem cells in co-culture with ESO cells” value in data set [9] is “most effective”. For the same compound, in data set [10], the “eradication of BE, dysplasia and cancer stem cells in 3D (ALI) culture” value was “eradicate”. For the same compound, in data set [11], the “Dysplastic structures (Krt7+/Ki67+) in xenografts” value is given as “diminished”; the “eradication of precancerous, dysplastic and cancerous stem cells in mouse xenograft models” value is recorded as “eradicate”; the “stem cells cloned from treated dysplastic structures (rhodamine staining)” value is given as “not cloned”. Also, in data set [12], the IC50 was 3.8 nM. Further, in data set [13], the “inhibition of the tryptic and peptidylglutamyl activities of the proteosome” value was “only marginal inhibition”. The IC50 in [14] was 3.8 nM.
Take `O=[N+]([O-])c1ccc2c(c1)S(=O)(=O)C=C2` [Stattic]: the “lethality towards Barrett's stem cells” value in data set [1] was “displayed the lethality”. Further, in data set [2], the “effect on Esophageal stem cells” value is “without affecting”. Moreover, on STAT1, the “selectivity over STAT1” value is recorded as “highly selectivity”.
